In EP4772500A1, “NOVEL ISOXAZOLE COMPOUND AS TM4SF5-SPECIFIC INHIBITOR AND USE THEREOF” (Seoul National University R&DB Foundation, priority 2023, dated 2025):

Target: T1, TM4SF5 (Homo sapiens, UniProt O14894)
T1 sequence (O14894 1-197): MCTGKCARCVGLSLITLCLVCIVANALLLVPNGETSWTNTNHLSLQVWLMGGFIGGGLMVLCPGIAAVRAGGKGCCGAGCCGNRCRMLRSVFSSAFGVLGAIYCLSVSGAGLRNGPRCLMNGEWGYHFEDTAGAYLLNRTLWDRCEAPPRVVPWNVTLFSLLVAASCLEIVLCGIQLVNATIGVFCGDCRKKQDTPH
Test: 1,2-3H-Cholesterol binding to pulled-down TM4SF5
Parameters: expressed in transfected cells; captured on streptavidin agarose
Conditions: 1,2-3H-Cholesterol (50 µM); for IC50: Huh7KO Strep-TM4SF5 (FIG. 19e), read-out: concentration at which binding between TM4SF5 and cholesterol was reduced by 50%; for binding of TM4SF5 to cholesterol: drug 2.5 µM, 1 hour (FIG. 19c)
Procedure: (a) Expression vectors for a control vector, TM4SF1, TM4SF5 WT, and R113Q, C118/145A, H127A, and N138A mutants of TM4SF5 were injected into the HEK293FT cell line, which was confirmed not to express TM4SF5, and allowed to express for 48 hours. (b) Huh7KO cell lines, in which TM4SF5 was knocked out in Huh7, were stably infected with a retrovirus encoding pBabe-EV or pBabe-TM4SF5-HA. […] (d) Strep-EV, Strep-PD-L1 WT, and 3NQ (N192/200/219Q) and 4NQ (N35/192/200/219Q) N-glycosylation mutants were injected into Huh7 cells to be expressed. (e) Strep-EV and Strep-TM4SF5 expression vectors were injected into Huh7KO cells and allowed to express for 48 hours. (a-e) After obtaining cell extracts, TM4SF5-strep, TM4SF5-HA, or PD-L1-strep was pulled down with streptavidin agarose resin or anti-HA antibody from extracts containing 0.2, 0.25, or 1.0 mg of protein for each experimental condition. Each of the pulled-down beads was treated with ^14C-labelled ST-5-002 (10, 25, or various indicated concentrations, µM) for 1 hour in the presence or absence of 400 µM of cold ST-5-002 (a-b). Alternatively, they were treated with 1,2-^3H-Cholesterol (50 µM) alone or together with ST-3-001 (negative control compound), ST-5-001, or ST-5-002 (2.5 µM each) for 1 hour (c-e). For the experimental samples of each condition, radioactive isotope values were repeatedly measured using a TriCarb scintillation counter (PerkinElmer, Waltham, MA).

CC(=O)Nc1ccc(-c2cc(-c3ccc(O)cc3)no2)cc1 [ST-5-001, N-(4-(3-(4-hydroxyphenyl)isoxazole-5-yl)phenyl)acetamide]
IC50: 6.15 µM | binding of TM4SF5 to cholesterol: inhibited

COc1cccc(-c2cc(-c3ccc(NC(C)=O)cc3)no2)c1 [ST-3-001, N-(4-(5-(3-methoxyphenyl)isoxazole-3-yl)phenyl)acetamide]
binding of TM4SF5 to cholesterol: not affected

Cc1ccc(C(=O)Nc2ccc(-c3cc(-c4ccc(O)cc4)no3)cc2)cc1 [ST-5-002, N-(4-(3-(4-hydroxyphenyl)isoxazole-5-yl)phenyl)-4-methylbenzamide]
IC50: 0.787 µM | binding of TM4SF5 to cholesterol: inhibited
